Data as given in patent US20250043031A1, “NOVEL DRYING METHOD FOR OLIGOSACCHARIDES” (INBIOSE N.V., priority 2021, published 2025).
In brackets after ≈: the same amount, converted by molar mass. Blank lines part the entries; values can stand above or below the molecule they belong to.

Legend:
[1] = Moisture / water content of dried oligosaccharide powder (Karl Fischer titration, infrared moisture analyzer); type: physicochemical; details: powder from ATFD system B; heated surface 64-70° C., 20-40 mbar, rotor 800-850 rpm; about 20% dry weight solution in reverse osmosis water
Description: Sartorius MA150 Infrared Moisture Analyzer is used to determine the dry matter content of the oligosaccharides. 0.5 g of oligosaccharide is weighed on an analytical balance and is dried in the infrared moisture analyzer until the weight of the sample is stable. The mass of the dried sample divided by the mass of the sample before drying gives the dry matter content (in percent) of the oligosaccharides or sample including oligosaccharides. In a similar way a liquid sample is weighed, however, the amount of liquid weighed is adapted to the expected amount of dry matter in the liquid, so the mass of the dry matter is properly measurable on an analytical balance.
A moisture analyzer measures the dry matter, but not the water content. Karl Fisher titration is used to determine the amount of water present in a powder, ingredient of food. […]
The moisture content (MC) of sample was calculated using the following equation: […]
For testing the principle of agitated thin film drying on oligosaccharides according to the disclosure, a model system (i.e., system A as described throughout the Examples) is used wherein the model directly translates to large scale manufacturing. […] The ATFD chamber was equipped with a Liebig condenser and a dropping funnel to condense and quantify the vapor release. […]
Solutions (such as syrups) containing an oligosaccharide or a mixture of oligosaccharides were preheated to a temperature between 3° and 100° C. and pumped to the system with a peristaltic pump with a flow ranging from 0.1 to 1 kg/h. […] The amount of condensed water was measured and used to obtain the evaporation rate. The specific evaporation rate was calculated by dividing the evaporation rate by the used heat exchange area.
A pilot ATFD system (i.e., system B as described throughout the Examples) was used to produce larger amounts of dried oligosaccharide. […] The amount of condensed water was measured and used to obtain the evaporation rate. The specific evaporation rate was calculated by dividing the evaporation rate by the used heat exchange area. […]

[2] = Oligosaccharide analysis of ATFD powder: breakdown during the drying run; type: physicochemical; details: ATFD system B; 1-hour run (2′FL) or 2-hour run (LNnT, 6′SL); heated surface 64-70° C., 20-40 mbar
Method: Neutral oligosaccharides were analyzed on a Waters™ Acquity H-class UPLC with Evaporative Light Scattering Detector (ELSD) or a Refractive Index (RI) detection. A volume of 0.7 μL sample was injected on a Waters™ Acquity UPLC BEH Amide column (2.1×100 mm; 130 Å; 1.7 μm) column with an Acquity UPLC BEH Amide VanGuard column, 130 Å, 2.1×5 mm. The column temperature was 50° C. The mobile phase consisted of a ¼ water and ¾ acetonitrile solution to which 0.2% triethylamine was added. The method was isocratic with a flow of 0.130 mL/min. […] The temperature of the RI detector was set at 35° C.
(§1) Sialylated oligosaccharides were analyzed on a Waters™ Acquity H-class UPLC with Refractive Index (RI) detection. A volume of 0.5 μL sample was injected on a Waters™ Acquity UPLC BEH Amide column (2.1×100 mm; 130 Å; 1.7 μm). The column temperature was 50° C. The mobile phase consisted of a mixture of 70% acetonitrile, 26% ammonium acetate buffer (150 mM) and 4% methanol to which 0.05% pyrrolidine was added. The method was isocratic with a flow of 0.150 mL/min. The temperature of the RI detector was set at 35° C.
as §1, with “Both neutral and sialylated sugars” for “Sialylated oligosaccharides”, “72% acetonitrile and 28%” for “70% acetonitrile, 26%”, “(100” for “(150”, “mM)” for “mM) and 4% methanol”, “0.1% triethylamine” for “0.05% pyrrolidine”, “0.260” for “0.150”
A pilot ATFD system (i.e., system B as described throughout the Examples) was used to produce larger amounts of dried oligosaccharide. The inner diameter and length of the drying chamber is 15.1 cm and 41.7 cm, respectively. The heat exchanger area is 0.2 m^2. […] The amount of condensed water was measured and used to obtain the evaporation rate. The specific evaporation rate was calculated by dividing the evaporation rate by the used heat exchange area.

[3] = Color of powder obtained by ATFD; type: physicochemical; details: ATFD system B; from 15 min (2′FL), 30 min (LNnT) or 20 min (6′SL) and at each subsequent time-point
Description: In a first aspect, provided is a method for drying an oligosaccharide and/or for obtaining an oligosaccharide in the form of a solid (preferably a powder), the method comprising the steps of: • i) providing a solution comprising an oligosaccharide; and • ii) applying the solution to an agitated thin film dryer, • wherein the oligosaccharide has a degree of polymerization (DP) that is less than 16, preferably less than 15, even more preferably less than 14, even more preferably less than 13, even more preferably less than 12, even more preferably less than 11, even more preferably less than 10, even more preferably less than 9, even more preferably less than 8, most preferably less than 7. […] The “ICUMSA” refers to the International Commission for Uniform methods of Sugar Analysis, i.e., the unit used for the measurement of sugar color.
A pilot ATFD system (i.e., system B as described throughout the Examples) was used to produce larger amounts of dried oligosaccharide. The inner diameter and length of the drying chamber is 15.1 cm and 41.7 cm, respectively. The heat exchanger area is 0.2 m^2. The heat exchanger area can be heated at 50-120° C. using steam. The distance between the rotor and wall is 0.9 mm. The blades can rotate at 200-2200 rpm. The condenser was operated with cooling water of 5-6° C. The amount of condensed water was measured and used to obtain the evaporation rate. The specific evaporation rate was calculated by dividing the evaporation rate by the used heat exchange area.

[4] = 25° C.; literature values (WO2018/164937, EFSA Journal); cited from earlier work
[5] = Bulk density of powder (ASTM D1895 method A, i.e., ISO Method R 60); type: physicochemical; details: for bulk density of the powder obtained by ATFD, average during the run: ATFD system B powder; for bulk density of the spray dried powder: spray dried powder (comparison)
Description: As used herein, the term “bulk density” is the weight of the particles of a particulate solid (such as a powder) in a given volume, and is expressed in grams per liter (g/L). The total volume that the particles of a particulate solid occupy depends on the size of the particles themselves and the volume of the spaces between the particles. Entrapped air between and inside the particles also can affect the bulk density. Thus, a particulate solid consisting of large, porous particles with large inter-particulate spaces will have a lower bulk density than a particulate solid consisting of small, non-porous particles that compact closely together. Bulk density can be expressed in two forms: “loose bulk density” and “tapped bulk density.” Loose bulk density (also known in the art as “freely settled” or “poured” bulk density) is the weight of a particulate solid divided by its volume where the particulate solid has been allowed to settle into that volume of its own accord (e.g., a powder poured into a container).
Techniques for measuring bulk density are well known in the art. Loose bulk density may be measured using a measuring cylinder and weighing scales: the particulate solid is poured into the measuring cylinder and the weight and volume of the particulate solid; weight divided by volume gives the loose bulk density. Tapped bulk density can be measured using the same technique, with the addition of tapping the measuring cylinder a set number of times before measuring weight and volume. Automation of tapping ensures the number, timing and pressure of individual taps is accurate and consistent. Automatic tapping devices are readily available, an example being the Jolting Stampfvolumeter (STAV 203) from J. Englesmann A G.
Lacto-N-neotetraose (LNnT) was recombinantly produced in E. coli according to Example 2, followed by a cell lysis treatment and/or broth clarification according to Example 4. The clarified broth was finally spray dried as described in Example 1 to obtain a powder comprising LNnT (74%), pLNnH (13%; para-lacto-N-neohexaose) and LNT-II (3%; lacto-N-triose II). A solution (16.1 kg) of LNnT was then prepared in reverse osmosis water such that the dry weight is 19.60%. The LNnT solution was then fed into the ATFD system B (it is referred to Example 1) at 7.7 kg/h. […] Every 5 minutes, a sample of the obtained powder was analyzed according to Example 1 (dry matter content, moisture content, oligosaccharide analysis, color).
6′-sialyllactse (6′SL) was recombinantly produced in E. coli according to Example 2, followed by a cell lysis treatment and/or broth clarification according to Example 4. […] Every 5 minutes, a sample of the obtained powder was analyzed according to Example 1 (dry matter content, moisture content, oligosaccharide analysis, color).

Molecule: CC(=O)N[C@H]1[C@H]([C@H](O)[C@H](O)CO)O[C@@](O[C@H]2[C@@H](O)[C@@H](CO)O[C@@H](O[C@H]3[C@H](O)[C@@H](O)C(O)O[C@@H]3CO)[C@@H]2O)(C(=O)O)C[C@@H]1O (stereo partly drawn) [3′-sialyllactose]
solubility in an aqueous solution [4]: 500 mg/mL (≈ 789 mM)

Molecule: CC(=O)N[C@H]1[C@H](O[C@H]2[C@@H](O)[C@@H](CO)O[C@@H](O[C@H]3[C@H](O)[C@@H](O)C(O)O[C@@H]3CO)[C@@H]2O)O[C@H](CO)[C@@H](O)[C@@H]1O[C@@H]1O[C@H](CO)[C@H](O)[C@H](O)[C@H]1O (stereo partly drawn) [Lacto-N-tetraose]
solubility in an aqueous solution [4]: 400 mg/mL (≈ 565 mM)

The next lines start with results.

mean moisture content [1]: 2.47%
oligosaccharide broken down at the end of the run [2]: less than 4%
color of the obtained powder [3]: white to off-white
Molecule: 2′-fucosyllactose
solubility in an aqueous solution [4]: 1410 mg/mL

mean moisture content [1]: 5.5%
oligosaccharide broken down at the end of the run [2]: less than 10%
bulk density of the powder obtained by ATFD, average during the run [5]: 509 ± 16 g/L
bulk density of the spray dried powder [5]: 368 g/L
color of the obtained powder [3]: white to off-white
Molecule: CC(=O)N[C@H]1[C@H](O[C@H]2[C@@H](O)[C@@H](CO)O[C@@H](O[C@H]3[C@H](O)[C@@H](O)C(O)O[C@@H]3CO)[C@@H]2O)O[C@H](CO)[C@@H](O[C@@H]2O[C@H](CO)[C@H](O)[C@H](O)[C@H]2O)[C@@H]1O (mixture of isomers) [Lacto-N-neotetraose]
solubility in an aqueous solution [4]: 500 mg/mL

mean moisture content [1]: 6.2-6.8%
oligosaccharide broken down at the end of the run [2]: less than 10%
bulk density of the powder obtained by ATFD, average during the run [5]: 521 ± 10 g/L
bulk density of the spray dried powder [5]: 321 g/L
color of the obtained powder [3]: white to off-white
Molecule: CC(=O)N[C@H]1[C@H]([C@H](O)[C@H](O)CO)O[C@@](OC[C@H]2O[C@@H](O[C@H]3[C@H](O)[C@@H](O)[C@H](O)O[C@@H]3CO)[C@H](O)[C@@H](O)[C@H]2O)(C(=O)O)C[C@@H]1O [6′-sialyllactose]
solubility in an aqueous solution [4]: at least 500 g/L
